Data as given in patent publication US20050112573A1, “Method of detecting toxic substance” (priority 2001, published 2005).

Tested on: yeast genes (level of expressed mRNA)
Assay: DNA chip analysis of expressed mRNA of yeast genes after 2 h culture with a toxic chemical substance
Type: cell-based, Saccharomyces cerevisiae S288C
Conditions: for The level of expressed mRNA in the presence of chemical substance/ (ratio to absence of chemical substance): stress protein genes, DNA chip
Description: Yeast (Saccharomyces cerevtisiae S288C (α SUC2mal mel gap2 CUP1)) were cultured at 25° C. on YPD medium (yeast extract 1%, polypepton 2%, glucose 2%). One of toxic chemical substances was added to the cell at logarithmic growth phase, and the cell was further cultured for two hours. Cell was cultured without any chemical substance in the same condition, and was used as control. Concentrations of the chemical substances were defined to inhibit the growth of the yeast but not lead to death.
After the completion of cultivation, the culture was centrifuged to collect the cells. To the cells, sodium acetate buffer (50 mM sodium acetate, 10 mM EDTA, 1% SDS) was added, and the mixture was shaken at 65° C. for five minutes, followed by returning to room temperature, and obtaining the supernatant, which procedure was repeated two times. To the supernatant, ½ amount of a solution of phenol/chloroform was added, and the mixture was centrifuged to give a supernatant, which was added with an equal amount of chloroform, and the mixture was centrifuged to give a supernatant. To the supernatant, an equal amount of isopropanol containing 0.3 M sodium acetate was added, and the mixture was allowed to stand at room temperature for 30 minutes, after which the mixture was centrifuged to give a sediment of the whole RNAs. Seventy % ethanol was added to the sediment, and the mixture was again centrifuged to give a sediment, which was then dried and dissolved in water. mRNA was isolated from the whole RNAs as followings. In view of the fact that a poly A chain is attached to the 3′ terminus of mRNA, a polynucleotide having a poly T structure which was immobilized on the surface of latex beads was used to trap the mRNA, and then the mRNA was washed and eluted with spine column (Oligotex-dT30<Super>mRNA Purification Kit, Takara). Reverse transcription of the mRNA was conducted with a reverse transcriptase (Super Script II Reverse Transcriptase; catalogue No. 18064-014, GibcoBRL) using fluorescence-labeled nucleotides to give cDNAs that were introduced with Cy3-dUTP or Cy5-dUTP during the reverse transcription.
The labeled cDNAs were dissolved in TE buffer (10 mM Tris-HCl/1 mM EDTA, pH8.0), and the solution was dropped on the DNA chip containing the whole genes of yeast (DNA Chip Research Inc. Japan) so that the cDNAs were hybridized on the DNA chip at 65° C. for over 12 hours. The fluoresces intensity of the DNA chip was read with a scanner, and the ratio relative to the fluorescence intensity resulting from the absence of chemical substance was estimated as the following, which is shown in Tables 1 to 9: [formula]
In the Tables, “Intensity” indicated in the rightmost column is a value of the level of expressed mRNA of each gene in control cells as divided by the average level of the expressions of the whole genes.

CCCCCCCCCCCCOS(=O)(=O)[O-].[Na+] [(18), sodium lauryl sulfate]
The level of expressed mRNA in the presence of chemical substance/ in its absence, gene YDL078C (yeast gene YDL078C, ratio of DNA chip fluorescence intensity to that without chemical substance): 2.0
The level of expressed mRNA in the presence of chemical substance/ (in its absence), gene YDL215C (yeast gene YDL215C, ratio of DNA chip fluorescence intensity to that without chemical substance): 1.6
The level of expressed mRNA in the presence of chemical substance/The level of expressed mRNA in the absence of chemical substance (yeast gene YDL238C): 1.3
The level of expressed mRNA in the presence of chemical substance/The level of expressed mRNA in the absence of chemical substance (yeast gene YDR055W): 1.9
The level of expressed mRNA in the presence of chemical substance/ (in its absence), gene YDR073W (yeast gene YDR073W, ratio of DNA chip fluorescence intensity to that without chemical substance): 2.3
The level of expressed mRNA in the presence of chemical substance/ in its absence, gene YDR079W (yeast gene YDR079W, energy system protein genes, 2 h culture with the chemical, ratio to control without chemical): 1.3
The level of expressed mRNA in the presence of chemical substance/ (ratio to absence), gene YDR079W (yeast gene YDR079W, mitochondria-located protein genes, 2 h culture with chemical): 1.3
The level of expressed mRNA in the presence of chemical substance/The level of expressed mRNA in the absence of chemical substance (yeast gene YDR084C): 1.3
The level of expressed mRNA in the presence of chemical substance/The level of expressed mRNA in the absence of chemical substance (yeast gene YDR085C): 1.8
The level of expressed mRNA in the presence of chemical substance/The level of expressed mRNA in the absence of chemical substance (yeast gene YDR104C): 1.0
The level of expressed mRNA in the presence of chemical substance/The level of expressed mRNA in the absence of chemical substance (yeast gene YDR115W): 1.4
The level of expressed mRNA in the presence of chemical substance/The level of expressed mRNA in the absence of chemical substance (yeast gene YDR259C): 0.8
The level of expressed mRNA in the presence of chemical substance/ (in its absence), gene YDR297W (yeast gene YDR297W, ratio of DNA chip fluorescence intensity to that without chemical substance): 1.9
The level of expressed mRNA in the presence of chemical substance/The level of expressed mRNA in the absence of chemical substance (yeast gene YDR315C): 1.2
The level of expressed mRNA in the presence of chemical substance/The level of expressed mRNA in the absence of chemical substance (yeast gene YDR358W): 1.9
The level of expressed mRNA in the presence of chemical substance/ (ratio to absence), gene YDR377W (yeast gene YDR377W, mitochondria-located protein genes, 2 h culture with chemical): 2.5
The level of expressed mRNA in the presence of chemical substance/ (in its absence), gene YDR387C (yeast gene YDR387C, ratio of DNA chip fluorescence intensity to that without chemical substance): 1.1
The level of expressed mRNA in the presence of chemical substance/The level of expressed mRNA in the absence of chemical substance (yeast gene YDR388W): 1.3
The level of expressed mRNA in the presence of chemical substance/The level of expressed mRNA in the absence of chemical substance (yeast gene YDR432W): 0.7
The level of expressed mRNA in the presence of chemical substance/The level of expressed mRNA in the absence of chemical substance (yeast gene YDR481C): 1.4
The level of expressed mRNA in the presence of chemical substance/The level of expressed mRNA in the absence of chemical substance (yeast gene YDR510W): 1.5
The level of expressed mRNA in the presence of chemical substance/ (ratio to absence of chemical substance) (yeast gene YEL039C): 1.1
The level of expressed mRNA in the presence of chemical substance/The level of expressed mRNA in the absence of chemical substance (yeast gene YEL042W): 0.8
The level of expressed mRNA in the presence of chemical substance/The level of expressed mRNA in the absence of chemical substance (yeast gene YEL066W): 1.1
The level of expressed mRNA in the presence of chemical substance/ (in its absence), gene YER015W (yeast gene YER015W, ratio of DNA chip fluorescence intensity to that without chemical substance): 2.6
The level of expressed mRNA in the presence of chemical substance/The level of expressed mRNA in the absence of chemical substance (yeast gene YER039C): 1.1
The level of expressed mRNA in the presence of chemical substance/ (ratio to absence of chemical substance) (yeast gene YER057C): 1.8
The level of expressed mRNA in the presence of chemical substance/The level of expressed mRNA in the absence of chemical substance (yeast gene YER107C): 1.2
The level of expressed mRNA in the presence of chemical substance/The level of expressed mRNA in the absence of chemical substance (yeast gene YER130C): 2.5
The level of expressed mRNA in the presence of chemical substance/The level of expressed mRNA in the absence of chemical substance (yeast gene YFL028C): 1.5
The level of expressed mRNA in the presence of chemical substance/The level of expressed mRNA in the absence of chemical substance (yeast gene YFL043C): 1.2
The level of expressed mRNA in the presence of chemical substance/ (in its absence), gene YGL035C (yeast gene YGL035C, ratio of DNA chip fluorescence intensity to that without chemical substance): 1.2
The level of expressed mRNA in the presence of chemical substance/ (in its absence), gene YGL115W (yeast gene YGL115W, ratio of DNA chip fluorescence intensity to that without chemical substance): 1.2
The level of expressed mRNA in the presence of chemical substance/ (ratio to absence of chemical substance) (yeast gene YGL115W): 1.2
The level of expressed mRNA in the presence of chemical substance/The level of expressed mRNA in the absence of chemical substance (yeast gene YGL158W): 1.1
The level of expressed mRNA in the presence of chemical substance/ (ratio to absence), gene YGL187C (yeast gene YGL187C, mitochondria-located protein genes, 2 h culture with chemical): 2.4
The level of expressed mRNA in the presence of chemical substance/ (in its absence), gene YGL205W (yeast gene YGL205W, ratio of DNA chip fluorescence intensity to that without chemical substance): 9.1
The level of expressed mRNA in the presence of chemical substance/The level of expressed mRNA in the absence of chemical substance (yeast gene YGL229C): 0.9
The level of expressed mRNA in the presence of chemical substance/ in its absence, gene YGR062C (yeast gene YGR062C, energy system protein genes, 2 h culture with the chemical, ratio to control without chemical): 1.1
The level of expressed mRNA in the presence of chemical substance/ (ratio to absence), gene YGR062C (yeast gene YGR062C, mitochondria-located protein genes, 2 h culture with chemical): 1.1
The level of expressed mRNA in the presence of chemical substance/ (in its absence), gene YGR096W (yeast gene YGR096W, ratio of DNA chip fluorescence intensity to that without chemical substance): 1.0
The level of expressed mRNA in the presence of chemical substance/The level of expressed mRNA in the absence of chemical substance (yeast gene YGR136W): 1.8
The level of expressed mRNA in the presence of chemical substance/The level of expressed mRNA in the absence of chemical substance (yeast gene YGR189C): 1.7
The level of expressed mRNA in the presence of chemical substance/The level of expressed mRNA in the absence of chemical substance (yeast gene YGR213C): 8.5
The level of expressed mRNA in the presence of chemical substance/The level of expressed mRNA in the absence of chemical substance (yeast gene YGR257C): 1.3
The level of expressed mRNA in the presence of chemical substance/ (in its absence), gene YGR287C (yeast gene YGR287C, ratio of DNA chip fluorescence intensity to that without chemical substance): 1.1
The level of expressed mRNA in the presence of chemical substance/ (in its absence), gene YGR288W (yeast gene YGR288W, ratio of DNA chip fluorescence intensity to that without chemical substance): 1.3
The level of expressed mRNA in the presence of chemical substance/ (ratio to absence of chemical substance) (yeast gene YHL028W): 2.5
The level of expressed mRNA in the presence of chemical substance/ (ratio to absence of chemical substance) (yeast gene YHL046C): 0.9
The level of expressed mRNA in the presence of chemical substance/The level of expressed mRNA in the absence of chemical substance (yeast gene YHR004C): 1.6
The level of expressed mRNA in the presence of chemical substance/The level of expressed mRNA in the absence of chemical substance (yeast gene YHR071W): 1.0
The level of expressed mRNA in the presence of chemical substance/The level of expressed mRNA in the absence of chemical substance (yeast gene YHR139C): 1.3
The level of expressed mRNA in the presence of chemical substance/The level of expressed mRNA in the absence of chemical substance (yeast gene YHR142W): 1.3
The level of expressed mRNA in the presence of chemical substance/ (in its absence), gene YHR210C (yeast gene YHR210C, ratio of DNA chip fluorescence intensity to that without chemical substance): 1.2
The level of expressed mRNA in the presence of chemical substance/ (in its absence), gene YIL006W (yeast gene YIL006W, ratio of DNA chip fluorescence intensity to that without chemical substance): 0.9
The level of expressed mRNA in the presence of chemical substance/ (ratio to absence of chemical substance) (yeast gene YIL011W): 0.8
The level of expressed mRNA in the presence of chemical substance/The level of expressed mRNA in the absence of chemical substance (yeast gene YIL123W): 1.0
